# Data published in patent US12459974B2, “Bicyclic peptide ligands specific for Nectin-4” (priority 2018, dated 2025).
# *1 amine or outer side, *2 acyl side, *3 side chain or, on linkers, in order; H or OH if unused. Where a SMILES comes first, the peptide text is derived from it. Bridges are numbered along the chain shown (N, C = ends). Roman numbers before positions name the chains, in order. [ ]: non-standard residue; d: D form. The star is where a group is joined. ξ: configuration not given here. TATA = O=C(CC[*:1])N1CN(C(=O)CC[*:2])CN(C(=O)CC[*:3])C1; Dolaproine = CO[C@@H]([C@@H]1CCCN1)[C@@H](C)C(=O)O; X1 = CC[C@H](C)C(C(CC(=O)[*:2])OC)N(C)[*:1]; 1Nal = N[C@@H](Cc1cccc2ccccc12)C(=O)O; X3 = O=C(CCCC(=O)[*:2])NCCC(=O)[*:1]; PABC = O=C(OCc1ccc(N[*:1])cc1)[*:2]; Hyp = O=C(O)[C@@H]1C[C@@H](O)CN1; hArg = N=C(N)NCCCC[C@H](N)C(=O)O; Cit = NC(=O)NCCC[C@H](N)C(=O)O; X2 = CC(N*)[C@@H](O)c1ccccc1; ξNMeV = CNC(C(=O)O)C(C)C; ξV = CC(C)C(N)C(=O)O; Sar = CNCC(=O)O
# Experiments:
# MDA-MB-468 xenograft = assay: Example 9.9: in vivo efficacy of BCY8245 alone or with BCY8234 in MDA-MB-468 xenograft (large tumors) in Balb/c nude mice; parameters: species or system Mus Musculus
# A549 xenograft = assay: Example 9.1: in vivo efficacy in A549 xenograft in Balb/c nude mice; parameters: species or system Mus Musculus; conditions: for Tumor volume trace over time: iv; for T/C: treated group average tumor volume / control group; for Tumor volume: Mean ± SEM
# [1] = 3 mpk, biw, day 14 after the start of treatment
# [2] = 3 mpk, qw, day 14 after the start of treatment
# [3] = 5 mpk, qw, day 14 after the start of treatment
compound,measurement,setting,value
"CC[C@H](C)C(C(CC(=O)N1CCC[C@H]1[C@H](OC)[C@@H](C)C(=O)NC(C)[C@@H](O)c1ccccc1)OC)N(C)C(=O)[C@@H](NC(=O)C(C(C)C)N(C)C(=O)OCc1ccc(NC(=O)[C@H](CCCNC(N)=O)NC(=O)C(NC(=O)CCCC(=O)NCCC(=O)N(C)CC(=O)N(C)CC(=O)N(C)CC(=O)N(C)CC(=O)N(C)CC(=O)N(C)CC(=O)N(C)CC(=O)N(C)CC(=O)N(C)CC(=O)N(C)CC(=O)N[C@H]2CSCCC(=O)N3CN4CN(C3)C(=O)CCSC[C@H](NC(=O)[C@@H](CC(=O)O)NC(=O)[C@H](Cc3cccc5ccccc35)NC(=O)[C@@H]3CCCN3C2=O)C(=O)N[C@@H](CCSC)C(=O)N[C@@H](CCCCNC(=N)N)C(=O)N[C@@H](CC(=O)O)C(=O)N[C@@H](Cc2c[nH]c3ccccc23)C(=O)N[C@@H](CO)C(=O)N[C@@H]([C@@H](C)O)C(=O)N2CCC[C@H]2C(=O)N2C[C@H](O)C[C@H]2C(=O)N[C@@H](Cc2c[nH]c3ccccc23)C(=O)N[C@H](C(N)=O)CSCCC4=O)C(C)C)cc1)C(C)C (stereo partly drawn) [BCY8245, MMAE-PABC-Cit-Val-Glutaryl-BCY8234] (I: [Sar][Sar][Sar][Sar][Sar][Sar][Sar][Sar][Sar][Sar]CP[1Nal][dD]CM[hArg]DWSTP[Hyp]WC-NH2 / II: [ξV][Cit][PABC][ξNMeV]V[X1][Dolaproine]-X2; linker I:11-I:15-I:25 via TATA; linker I:N-II:N via X3)",Tumor volume,"MDA-MB-468 xenograft; Group1, Vehicle, dosed with 5 mpk BCY8245 on PG-D28, day 44",132 ± 69 mm^3
same,Tumor volume,"MDA-MB-468 xenograft; Group1, Vehicle, dosed with 5 mpk BCY8245 on PG-D28, day 48",146 ± 100 mm^3
same,Tumor volume,"MDA-MB-468 xenograft; Group1, Vehicle, dosed with 5 mpk BCY8245 on PG-D28, day 51",171 ± 122 mm^3
same,Tumor volume,"MDA-MB-468 xenograft; Group1, Vehicle, dosed with 5 mpk BCY8245 on PG-D28, day 55",227 ± 166 mm^3
same,Tumor volume,"MDA-MB-468 xenograft; Group1, Vehicle, dosed with 5 mpk BCY8245 on PG-D28, day 56",264 ± 182 mm^3
same,Tumor volume,"MDA-MB-468 xenograft; Group1, Vehicle, dosed with 5 mpk BCY8245 on PG-D28, day 62",288 ± 206 mm^3
same,Tumor volume,"MDA-MB-468 xenograft; Group 2, 1 mpk, change in 5 mpk on PG-D28, day 30",351 ± 42 mm^3
same,Tumor volume,"MDA-MB-468 xenograft; Group 2, 1 mpk, change in 5 mpk on PG-D28, day 33",213 ± 29 mm^3
same,Tumor volume,"MDA-MB-468 xenograft; Group 2, 1 mpk, change in 5 mpk on PG-D28, day 35",151 ± 18 mm^3
same,Tumor volume,"MDA-MB-468 xenograft; Group 2, 1 mpk, change in 5 mpk on PG-D28, day 37",98 ± 16 mm^3
same,Tumor volume,"MDA-MB-468 xenograft; Group 2, 1 mpk, change in 5 mpk on PG-D28, day 40",89 ± 17 mm^3
same,Tumor volume,"MDA-MB-468 xenograft; Group 2, 1 mpk, change in 5 mpk on PG-D28, day 42",95 ± 16 mm^3
same,Tumor volume,"MDA-MB-468 xenograft; Group 2, 1 mpk, change in 5 mpk on PG-D28, day 44",103 ± 20 mm^3
same,Tumor volume,"MDA-MB-468 xenograft; Group 2, 1 mpk, change in 5 mpk on PG-D28, day 48",106 ± 21 mm^3
same,Tumor volume,"MDA-MB-468 xenograft; Group 2, 1 mpk, change in 5 mpk on PG-D28, day 51",103 ± 21 mm^3
same,Tumor volume,"MDA-MB-468 xenograft; Group 2, 1 mpk, change in 5 mpk on PG-D28, day 55",104 ± 20 mm^3
same,Tumor volume,"MDA-MB-468 xenograft; Group 2, 1 mpk, change in 5 mpk on PG-D28, day 56",120 ± 23 mm^3
same,Tumor volume,"MDA-MB-468 xenograft; Group3, 3 mpk, qw, day 30",44 ± 18 mm^3
same,Tumor volume,"MDA-MB-468 xenograft; Group3, 3 mpk, qw, day 33",43 ± 20 mm^3
same,Tumor volume,"MDA-MB-468 xenograft; Group3, 3 mpk, qw, day 35",44 ± 20 mm^3
same,Tumor volume,"MDA-MB-468 xenograft; Group3, 3 mpk, qw, day 37",50 ± 24 mm^3
same,Tumor volume,"MDA-MB-468 xenograft; Group3, 3 mpk, qw, day 40",55 ± 29 mm^3
same,Tumor volume,"MDA-MB-468 xenograft; Group3, 3 mpk, qw, day 42",66 ± 32 mm^3
same,Tumor volume,"MDA-MB-468 xenograft; Group3, 3 mpk, qw, day 44",71 ± 33 mm^3
same,Tumor volume,"MDA-MB-468 xenograft; Group3, 3 mpk, qw, day 48",80 ± 36 mm^3
same,Tumor volume,"MDA-MB-468 xenograft; Group3, 3 mpk, qw, day 51",91 ± 43 mm^3
same,Tumor volume,"MDA-MB-468 xenograft; Group3, 3 mpk, qw, day 55",108 ± 53 mm^3
same,Tumor volume,"MDA-MB-468 xenograft; Group3, 3 mpk, qw, day 56",125 ± 58 mm^3
same,tumor response (in words),"MDA-MB-468 xenograft; former vehicle group and group 2, 5 mg/kg on PG-D28, following 3 weeks",effective tumor regression
same,TGI,"A549 xenograft; 3 mg/kg biw, day 14",90.8%
same,Tumor volume (TV),"A549 xenograft; 3 mg/kg biw, day 14",194 mm^3
same,TGI,"A549 xenograft; 3 mg/kg qw, day 14",51.4%
same,Tumor volume (TV),"A549 xenograft; 3 mg/kg qw, day 14",356 mm^3
same,TGI,"A549 xenograft; 5 mg/kg qw, day 14",82.6%
same,Tumor volume (TV),"A549 xenograft; 5 mg/kg qw, day 14",228 mm^3
same,Tumor volume trace over time,"A549 xenograft; 3 mpk, biw, day 0 after the start of treatment",157 ± 14
same,Tumor volume trace over time,"A549 xenograft; 3 mpk, biw, day 2 after the start of treatment",183 ± 27
same,Tumor volume trace over time,"A549 xenograft; 3 mpk, biw, day 5 after the start of treatment",158 ± 16
same,Tumor volume trace over time,"A549 xenograft; 3 mpk, biw, day 7 after the start of treatment",184 ± 6
same,Tumor volume trace over time,"A549 xenograft; 3 mpk, biw, day 9 after the start of treatment",182 ± 8
same,Tumor volume trace over time,"A549 xenograft; 3 mpk, biw, day 12 after the start of treatment",190 ± 15
same,Tumor volume trace over time,A549 xenograft; [1],194 ± 27
same,T/C,"A549 xenograft; 3 mpk, biw, day 14",34.2%
same,TGI,A549 xenograft; [1],90.8%
same,Tumor volume,A549 xenograft; [1],194 ± 27 mm^3
same,Tumor volume trace over time,"A549 xenograft; 3 mpk, qw, day 0 after the start of treatment, mean ± SEM",157 ± 10
same,Tumor volume trace over time,"A549 xenograft; 3 mpk, qw, day 2 after the start of treatment",208 ± 15
same,Tumor volume trace over time,"A549 xenograft; 3 mpk, qw, day 5 after the start of treatment",197 ± 25
same,Tumor volume trace over time,"A549 xenograft; 3 mpk, qw, day 7 after the start of treatment",257 ± 40
same,Tumor volume trace over time,"A549 xenograft; 3 mpk, qw, day 9 after the start of treatment",293 ± 41
same,Tumor volume trace over time,"A549 xenograft; 3 mpk, qw, day 12 after the start of treatment",341 ± 54
same,Tumor volume trace over time,A549 xenograft; [2],356 ± 53
same,T/C,"A549 xenograft; 3 mpk, qw, day 14",62.8%
same,TGI,A549 xenograft; [2],51.4%
same,Tumor volume,A549 xenograft; [2],356 ± 53 mm^3
same,Tumor volume trace over time,"A549 xenograft; 5 mpk, qw, day 0 after the start of treatment",157 ± 14
same,Tumor volume trace over time,"A549 xenograft; 5 mpk, qw, day 2 after the start of treatment",179 ± 22
same,Tumor volume trace over time,"A549 xenograft; 5 mpk, qw, day 5 after the start of treatment",147 ± 10
same,Tumor volume trace over time,"A549 xenograft; 5 mpk, qw, day 7 after the start of treatment",172 ± 23
same,Tumor volume trace over time,"A549 xenograft; 5 mpk, qw, day 9 after the start of treatment",173 ± 24
same,Tumor volume trace over time,"A549 xenograft; 5 mpk, qw, day 12 after the start of treatment",204 ± 36
same,Tumor volume trace over time,A549 xenograft; [3],228 ± 33
same,T/C,"A549 xenograft; 5 mpk, qw, day 14",40.2%
same,TGI,A549 xenograft; [3],82.6%
same,Tumor volume,A549 xenograft; [3],228 ± 33 mm^3
same,bodyweight (in words),A549 xenograft; all dose groups,maintained the bodyweight well
same,tumor response (in words),"A549 xenograft; mouse, in vivo",tumor growth is restrained by BCY8245 but the tumor does not undergo regression
